Source: patent US20210244721A1, “SMALL MOLECULE ENTEROVIRUS INHIBITORS AND USES THEREOF” (priority 2020, published 2021)

What follows are compounds tested on EV-D68 US/KY/14-18953 virus (assay: CPE assay, EV-D68 US/KY/14-18953 in RD cells). Conditions: EV-D68 US/KY/14-18953, RD cells.
Type: cell-based, Enterovirus D68 (EV-D68)

Q: With `NNC(=O)c1cc(-c2cccs2)nc2ccccc12` [Compound 12e, 2-(thiophen-2-yl)quinoline-4-carbohydrazide] as the compound, how does the “SI = selectivity index (CC50/EC50)” value read?
A: >8.4

Q: For `CN(C)c1ccc(NC(=O)c2cc(-c3ccccc3)nc3ccccc23)cc1` [Compound 10f, N-[4-(dimethylamino)phenyl]-2-phenylquinoline-4-carboxamide], which “SI = selectivity index (CC50/EC50)” value is on record?
A: >3.5

Q: With `CC(C)Oc1cc(C(=O)NCCN2CCOCC2)c2ccccc2n1` [Compound 8d, N-[2-(morpholin-4-yl)ethyl]-2-(propan-2-yloxy)quinoline-4-carboxamide] as the compound, how does the “SI = selectivity index (CC50/EC50)” value read?
A: >14.3

Q: How did the “SI = selectivity index (CC50/EC50)” value turn out when `CCN(CC)CCNC(=O)c1cc(OC)nc2ccccc12` [Compound 5a, N-[2-(diethylamino)ethyl]-2-methoxyquinoline-4-carboxamide] was run?
A: >4.8

Q: For `N=C(N)NC(=O)c1cc(-c2ccccc2)nc2ccccc12` [Compound 10e, N-carbamimidoyl-2-phenylquinoline-4-carboxamide], which “SI = selectivity index (CC50/EC50)” value is on record?
A: >7.2

Same assay, conditions: EV-D68 US/KY/14-18953, RD cells, CPE assay; read-out: EC50

Q: How did the EC50 turn out when `CN(C)CCNC(=O)c1cc(-c2ccco2)nc2ccccc12` [Compound 6bo, N-[2-(dimethylamino)ethyl]-2-(furan-2-yl)quinoline-4-carboxamide] was run?
A: 1.1 µM

Q: How did the EC50 turn out when `NCCNC(=O)c1cc(-c2cccs2)nc2ccccc12` [Compound 6bl, N-(2-aminoethyl)-2-(thiophen-2-yl)quinoline-4-carboxamide] was run?
A: 0.4 µM

Same assay, conditions: Enterovirus D, EVD68, RD, EV-D68 US/KY/14-18953, RD cells, CPE assay

Q: For `CN(C)CCNC(=O)c1cc(-c2ccco2)nc2ccccc12` [Compound 6bo, N-[2-(dimethylamino)ethyl]-2-(furan-2-yl)quinoline-4-carboxamide], which EC50 is on record?
A: < 1 µM

Same assay, conditions: Enterovirus D, EVD68, RD, EV-D68 US/KY/14-18953, RD cells, CPE assay; read-out: EC50

Q: `CNCCNC(=O)c1cc(-c2ccccc2)nc2ccccc12` [Compound 6af, N-[2-(methylamino)ethyl]-2-phenylquinoline-4-carboxamide] was tested. Which EC50 did it give?
A: 0.9 µM

Each compound was assayed on RD cells (assay: Cytotoxicity, neutral red method, RD cells). Conditions: RD cells, neutral red method.

Q: Which CC50 does the source give for `CCN(CC)CCNC(=O)c1cc(-c2ccn[nH]2)nc2ccccc12` [Compound 6a, N-[2-(diethylamino)ethyl]-2-(1H-pyrazol-5-yl)quinoline-4-carboxamide] here?
A: 132 ± 53.3 µM

Q: For `O=C(NCCN1CCCC1)c1cc(-c2ccccc2)nc2ccccc12` [Compound 10g, 2-phenyl-N-[2-(pyrrolidin-1-yl)ethyl]quinoline-4-carboxamide], which CC50 is on record?
A: 46.7 ± 8.3 µM

Q: `CCN(CC)CCNC(=O)c1cc(-c2ccccc2OC)nc2ccccc12` [Compound 6k, N-[2-(diethylamino)ethyl]-2-(2-methoxyphenyl)quinoline-4-carboxamide] was tested. Which CC50 did it give?
A: 75.9 ± 6.4 µM

Q: `CCN(CC)CCNC(=O)c1cc(OCc2ccccc2)nc2ccccc12` [Compound 5k, 2-(benzyloxy)-N-[2-(diethylamino)ethyl]quinoline-4-carboxamide] was tested. Which CC50 did it give?
A: 13.5 ± 2.9 µM

Q: `CCN(CC)CCNC(=O)c1cc(-c2cnc(OC)nc2)nc2ccccc12` [Compound 6q, N-[2-(diethylamino)ethyl]-2-(2-methoxypyrimidin-5-yl)quinoline-4-carboxamide] was tested. Which CC50 did it give?
A: 174 ± 20.3 µM

Q: For `CCN(CC)CCNC(=O)c1cc(-c2cnc(N(C)C)nc2)nc2ccccc12` [Compound 6p, N-[2-(diethylamino)ethyl]-2-[2-(dimethylamino)pyrimidin-5-yl]quinoline-4-carboxamide], which CC50 is on record?
A: 74.2 ± 7 µM

Q: `CC(C)Oc1cc(C(=O)NCCN)c2ccccc2n1` [Compound 8b, N-(2-aminoethyl)-2-(propan-2-yloxy)quinoline-4-carboxamide] was tested. Which CC50 did it give?
A: 149 ± 15.3 µM

Q: `CC(C)Oc1cc(C(=O)NCCCN(C)C)c2ccccc2n1` [Compound 8c, N-[3-(dimethylamino)propyl]-2-(propan-2-yloxy)quinoline-4-carboxamide] was tested. Which CC50 did it give?
A: 122 ± 39.2 µM

Q: How did the CC50 turn out when `CN(C)CCCNC(=O)c1cc(-c2ccccc2)nc2ccccc12` [Compound 10h, N-[3-(dimethylamino)propyl]-2-phenylquinoline-4-carboxamide] was run?
A: 44.9 ± 17.7 µM

Q: `CCN(CC)CCNC(=O)c1cc(-c2ccncc2)nc2ccccc12` [Compound 6i, N-[2-(diethylamino)ethyl]-2-(pyridin-4-yl)quinoline-4-carboxamide] was tested. Which CC50 did it give?
A: 174 ± 55.6 µM

Q: `NNC(=O)c1cc(-c2cccs2)nc2ccccc12` [Compound 12e, 2-(thiophen-2-yl)quinoline-4-carbohydrazide] was tested. Which CC50 did it give?
A: > 100 µM

Q: `CCN(CC)CCNC(=O)c1cc(OCC(F)(F)F)nc2ccccc12` [Compound 5c, N-[2-(diethylamino)ethyl]-2-(2,2,2-trifluoroethoxy)quinoline-4-carboxamide] was tested. Which CC50 did it give?
A: 33.1 ± 1.8 µM

Q: For `CCC(CC)Oc1cc(C(=O)NCCN(CC)CC)c2ccccc2n1` [Compound 5h, N-[2-(diethylamino)ethyl]-2-(pentan-3-yloxy)quinoline-4-carboxamide], which CC50 is on record?
A: 9.5 ± 1.1 µM

Q: For `CN(C)c1ccc(NC(=O)c2cc(-c3ccccc3)nc3ccccc23)cc1` [Compound 10f, N-[4-(dimethylamino)phenyl]-2-phenylquinoline-4-carboxamide], which CC50 is on record?
A: > 350 µM

Q: `CCOCCOc1cc(C(=O)NCCN(CC)CC)c2ccccc2n1` [Compound 5j, N-[2-(diethylamino)ethyl]-2-(2-ethoxyethoxy)quinoline-4-carboxamide] was tested. Which CC50 did it give?
A: 144 ± 40.5 µM

Q: How did the CC50 turn out when `CC(C)Oc1cc(C(=O)NCCN2CCOCC2)c2ccccc2n1` [Compound 8d, N-[2-(morpholin-4-yl)ethyl]-2-(propan-2-yloxy)quinoline-4-carboxamide] was run?
A: > 250 µM

Q: Which CC50 does the source give for `CCN(CC)CCNC(=O)c1cc(-c2c(C)noc2C)nc2ccccc12` [Compound 6h, N-[2-(diethylamino)ethyl]-2-(3,5-dimethyl-1,2-oxazol-4-yl)quinoline-4-carboxamide] here?
A: 129 ± 67.2 µM

Q: With `CC(C)Oc1cc(C(=O)NCCN2CCN(C)CC2)c2ccccc2n1` [Compound 8f, N-[2-(4-methylpiperazin-1-yl)ethyl]-2-(propan-2-yloxy)quinoline-4-carboxamide] as the compound, how does the CC50 read?
A: 88.8 ± 21.5 µM

Q: With `CC(C)Oc1cc(C(=O)NCCN(C)C)c2ccccc2n1` [Compound 8a, N-[2-(dimethylamino)ethyl]-2-(propan-2-yloxy)quinoline-4-carboxamide] as the compound, how does the CC50 read?
A: 38.5 ± 1.5 µM

Q: For `CCC(C)Oc1cc(C(=O)NCCN(CC)CC)c2ccccc2n1` (stereo not shown) [Compound 5f, 2-(butan-2-yloxy)-N-[2-(diethylamino)ethyl]quinoline-4-carboxamide], which CC50 is on record?
A: 15.7 ± 1.1 µM

Q: With `CCN(CC)CCNC(=O)c1cc(OC)nc2ccccc12` [Compound 5a, N-[2-(diethylamino)ethyl]-2-methoxyquinoline-4-carboxamide] as the compound, how does the CC50 read?
A: > 250 µM

Q: With `CCN(CC)CCNC(=O)c1cc(-c2ccc3c(c2)OCCO3)nc2ccccc12` [Compound 6t, N-[2-(diethylamino)ethyl]-2-(2,3-dihydro-1,4-benzodioxin-6-yl)quinoline-4-carboxamide] as the compound, how does the CC50 read?
A: 49.9 ± 13.8 µM

Q: `CCN(CC)CCNC(=O)c1cc(-c2cnn(C)c2)nc2ccccc12` [Compound 6b, N-[2-(diethylamino)ethyl]-2-(1-methyl-1H-pyrazol-4-yl)quinoline-4-carboxamide] was tested. Which CC50 did it give?
A: 251 ± 28.3 µM

Q: For `CCN(CC)CCNC(=O)c1cc(-c2ccc(CN3CCOCC3)cc2)nc2ccccc12` [Compound 6o, N-[2-(diethylamino)ethyl]-2-{4-[(morpholin-4-yl)methyl]phenyl}quinoline-4-carboxamide], which CC50 is on record?
A: 79.2 ± 8 µM

Q: How did the CC50 turn out when `CCOc1cc(C(=O)NCCN(CC)CC)c2ccccc2n1` [Compound 5b, N-[2-(diethylamino)ethyl]-2-ethoxyquinoline-4-carboxamide] was run?
A: 165 ± 57.6 µM

Q: For `CN(C)CCCNC(=O)c1cc(-c2cccs2)nc2ccccc12` [Compound 12b, N-[3-(dimethylamino)propyl]-2-(thiophen-2-yl)quinoline-4-carboxamide], which CC50 is on record?
A: 40.5 ± 14 µM

Q: `CCN(CC)CCNC(=O)c1cc(-c2ccc(-c3ccccc3)cc2)nc2ccccc12` [Compound 6u, 2-{[1,1′-biphenyl]-4-yl}-N-[2-(diethylamino)ethyl]quinoline-4-carboxamide] was tested. Which CC50 did it give?
A: 9.8 ± 0.5 µM

Q: Which CC50 does the source give for `CCN(CC)CCNC(=O)c1cc(-c2ccc(COC)cc2)nc2ccccc12` [Compound 6n, N-[2-(diethylamino)ethyl]-2-[4-(methoxymethyl)phenyl]quinoline-4-carboxamide] here?
A: 46.6 ± 2.4 µM

Q: How did the CC50 turn out when `N=C(N)NC(=O)c1cc(-c2ccccc2)nc2ccccc12` [Compound 10e, N-carbamimidoyl-2-phenylquinoline-4-carboxamide] was run?
A: > 250 µM

Q: For `CCN(CC)CCNC(=O)c1cc(-c2ccnn2C)nc2ccccc12` [Compound 6c, N-[2-(diethylamino)ethyl]-2-(1-methyl-1H-pyrazol-5-yl)quinoline-4-carboxamide], which CC50 is on record?
A: 133 ± 28.7 µM

Q: Which CC50 does the source give for `CCCOc1cc(C(=O)NCCN(CC)CC)c2ccccc2n1` [Compound 5d, N-[2-(diethylamino)ethyl]-2-propoxyquinoline-4-carboxamide] here?
A: 46.7 ± 14.7 µM

Q: With `O=C(NCCCn1ccnc1)c1cc(-c2cccs2)nc2ccccc12` [Compound 12d, N-[3-(1H-imidazol-1-yl)propyl]-2-(thiophen-2-yl)quinoline-4-carboxamide] as the compound, how does the CC50 read?
A: 55.7 ± 3.5 µM

Q: How did the CC50 turn out when `CCN(CC)CCNC(=O)c1cc(OC2CCCC2)nc2ccccc12` [Compound 5i, 2-(cyclopentyloxy)-N-[2-(diethylamino)ethyl]quinoline-4-carboxamide] was run?
A: 11.7 ± 1.2 µM

Q: Which CC50 does the source give for `CC(C)Oc1cc(C(=O)NC2CCN(C)CC2)c2ccccc2n1` [Compound 8g, N-(1-methylpiperidin-4-yl)-2-(propan-2-yloxy)quinoline-4-carboxamide] here?
A: 101 ± 8.8 µM

Q: How did the CC50 turn out when `CC(C)Oc1cc(C(=O)NCCN2CCCC2)c2ccccc2n1` [Compound 8e, 2-(propan-2-yloxy)-N-[2-(pyrrolidin-1-yl)ethyl]quinoline-4-carboxamide] was run?
A: 36.9 ± 20.1 µM

Q: How did the CC50 turn out when `CCN(CC)CCNC(=O)c1cc(OCC2CC2)nc2ccccc12` [Compound 5g, 2-(cyclopropylmethoxy)-N-[2-(diethylamino)ethyl]quinoline-4-carboxamide] was run?
A: 38.5 ± 16.8 µM

Q: For `CCN(CC)CCCNC(=O)c1cc(-c2ccccc2)nc2ccccc12` [Compound 10b, N-[3-(diethylamino)propyl]-2-phenylquinoline-4-carboxamide], which CC50 is on record?
A: 45.4 ± 14 µM

Same assay, conditions: Table 6; RD cells

Q: For `CN(C)CCNC(=O)c1cc(-c2ccccc2)nc2ccc(F)cc12` [Compound 19a, N-[2-(dimethylamino)ethyl]-6-fluoro-2-phenylquinoline-4-carboxamide], which CC50 is on record?
A: 38.8 ± 19 µM

Q: Which CC50 does the source give for `CCN(CC)CCNC(=O)c1cc(-c2ccccc2)nc2ccc(F)cc12` [Compound 19b, N-[2-(diethylamino)ethyl]-6-fluoro-2-phenylquinoline-4-carboxamide] here?
A: 24.9 ± 1.5 µM

Q: How did the CC50 turn out when `COc1ccc2nc(-c3ccccc3)cc(C(=O)NCCN(C)C)c2c1` [Compound 15c, N-[2-(dimethylamino)ethyl]-6-methoxy-2-phenylquinoline-4-carboxamide] was run?
A: 31.8 ± 1.3 µM

Q: With `CN(C)CCNC(=O)c1cc(-c2ccccc2)nc2ccc(Cl)cc12` [Compound 15a, 6-chloro-N-[2-(dimethylamino)ethyl]-2-phenylquinoline-4-carboxamide] as the compound, how does the CC50 read?
A: 14.3 ± 0.8 µM

Q: Which CC50 does the source give for `CCN(CC)CCNC(=O)c1cc(-c2ccccc2)nc2ccc(Cl)cc12` [Compound 15b, 6-chloro-N-[2-(diethylamino)ethyl]-2-phenylquinoline-4-carboxamide] here?
A: 13.5 ± 8.1 µM

Q: Which CC50 does the source give for `CCN(CC)CCNC(=O)c1cc(-c2ccccc2)nc2ccc(OC)cc12` [Compound 15d, N-[2-(diethylamino)ethyl]-6-methoxy-2-phenylquinoline-4-carboxamide] here?
A: 27.5 ± 7.3 µM
